As usually defined, the inhibition is the relative decrease from the control value, in per cent. Usually Km stands for the concentration of substrate that gives half-maximal velocity. As usually defined, the kcat is the number of substrate molecules converted per active site and unit of time at saturation. What is called kcat/Km is the turnover number divided by the Michaelis constant.

We go through 17 compounds from ChEMBL document CHEMBL5032508, “Synthesis of Fluorescent Probes Targeting Tumor-Suppressor Protein FHIT and Identification of Apoptosis-Inducing FHIT Inhibitors” (J Med Chem, 2021).

Calls of active or inactive are those of the source. The calls are words filed in the database; no cut-off is given here.

The target of data set [1] is Bis(5'-adenosyl)-triphosphatase (Homo sapiens) (UniProt P49789). Kind of data set: Inhibition of recombinant human FHIT at 100 uM incubated for 1 hr by fluorescence based analysis relative to control.
Chain of Bis(5'-adenosyl)-triphosphatase (Homo sapiens) (P49789 whole entry, looked up): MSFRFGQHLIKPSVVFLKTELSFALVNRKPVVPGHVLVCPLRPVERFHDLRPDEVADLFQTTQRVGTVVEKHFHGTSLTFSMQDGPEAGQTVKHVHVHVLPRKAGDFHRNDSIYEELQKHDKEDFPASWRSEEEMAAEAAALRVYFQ
Data set [2] has the same target. Kind of data set: Inhibition of recombinant human FHIT at 10 uM incubated for 1 hr by fluorescence based analysis relative to control.
The test system of data set [3] is HCC827-Luc. As to the kind of experiment: Induction of apoptosis in human HCC827-Luc cells assessed as increase in caspase 3/7 activity at 1 uM measured after 24 hrs by confocal fluorescence microscopic analysis. Format: functional, cell-based.
Data set [4] relates to HCC827-Luc. As to the kind of experiment: Induction of apoptosis in human HCC827-Luc cells expressing FHIT assessed as reduction in cell viability measured after 24 hrs by CCK-8 assay. Format: functional, cell-based. On the technique in general: Tetrazolium assays rely on reduction of a dye to a coloured formazan, in cell work by metabolically active cells.
Data set [5] has as its system NCI-H460-Luc. Kind of data set: Induction of apoptosis in human NCI-H460-Luc cells weakly expressing FHIT assessed as reduction in cell viability measured after 24 hrs by CCK-8 assay. Format: functional, cell-based.
The target in data set [6] is Bis(5'-adenosyl)-triphosphatase (Homo sapiens) (UniProt P49789). As to the kind of experiment: Inhibition of recombinant human FHIT assessed as reduction in AP3Aase activity at 50 uM measured after 45 mins by HPLC analysis relative to control.
Data set [7] deals with HCC827-Luc. As to the kind of experiment: Induction of apoptosis in human HCC827-Luc cells assessed as increase in caspase 3/7 activity at 10 uM measured after 24 hrs by confocal fluorescence microscopic analysis. Format: functional, cell-based.
The target in data set [8] is Bis(5'-adenosyl)-triphosphatase (Homo sapiens) (UniProt P49789). As to the kind of experiment: Noncompetitive inhibition of human recombinant FHIT assessed as reduction in hydrolysis of TG-CMP at 1 to 9 uM measured for 30 mins by Lineweaver-Burk plot analysis. To be noted: dose 1-9 µM.
Data set [9] deals with HCC827-Luc. Kind of data set: Induction of caspase-mediated apoptosis in human HCC827-Luc cells assessed as reduction in cell viability pretreated with caspase inhibitor Z-VAD-fmk for 1 hr followed by compound addition and measured after 72 hrs by CCK-8 assay. Format: functional, cell-based.
The subject of data set [10] is NCI-H460-Luc. Kind of data set: Induction of apoptosis in human NCI-H460-Luc cells weakly expressing FHIT cocultured with human HCC827-Luc cells assessed as PI-positive cells at 10 uM incubated for 12 hrs by calcein AM/Hoechst/PI staining based confocal fluorescence microscopic analysis. It counts as functional, cell-based.
Data set [11] concerns HCC827-Luc. Kind of data set: Induction of apoptosis in human HCC827-Luc cells expressing FHIT cocultured with human NCI-H460-Luc cells assessed as PI-positive cells at 10 uM incubated for 12 hrs by calcein AM/Hoechst/PI staining based confocal fluorescence microscopic analysis. It counts as functional, cell-based.
In data set [12] the test system is COc1ccc(-c2c3ccc(=O)cc-3oc3cc(OCOP(=O)(O)OC[C@H]4O[C@@H](n5ccc(N)nc5=O)[C@H](O)[C@@H]4O)ccc23)c(C)c1. As to the kind of experiment: Substrate activity at human recombinant FHIT assessed as Km by Michaelis-Menten analysis.
For data set [13] the test system is unchanged. Kind of data set: Substrate activity at human recombinant FHIT assessed as Kcat by Michaelis-Menten analysis.
For data set [14], the system named is COc1ccc(-c2c3ccc(=O)cc-3oc3cc(OCOP(=O)(O)OC[C@H]4O[C@@H](n5cnc6c(N)ncnc65)[C@H](O)[C@@H]4O)ccc23)c(C)c1. Kind of data set: (§1) Substrate activity at human recombinant FHIT assessed as Kcat/Km by Michaelis-Menten analysis.
For data set [15], the system named is COc1ccc(-c2c3ccc(=O)cc-3oc3cc(OCOP(=O)(O)OC[C@H]4O[C@@H](n5cnc6c(=O)[nH]c(N)nc65)[C@H](O)[C@@H]4O)ccc23)c(C)c1. The data set is described as §1.
The test system of data set [16] is COc1ccc(-c2c3ccc(=O)cc-3oc3cc(OCOP(=O)(O)OC[C@H]4O[C@@H](n5ccc(N)nc5=O)[C@H](O)[C@@H]4O)ccc23)c(C)c1. The description is as §1.
Data set [17] relates to COc1ccc(-c2c3ccc(=O)cc-3oc3cc(OCOP(=O)(O)OC[C@H]4O[C@@H](n5ccc(=O)[nH]c5=O)[C@H](O)[C@@H]4O)ccc23)c(C)c1. Described as §1.

Chain of Bis(5'-adenosyl)-triphosphatase (Homo sapiens), P49789 (P49789 whole entry): as the sequence (P49789 whole entry, looked up) above

With `Nc1ncnc2c1ncn2[C@@H]1O[C@H](COP(=O)(O)OP(=O)(O)OP(=O)(O)OP(=O)(O)OC[C@H]2O[C@@H](n3cnc4c(N)ncnc43)[C@H](O)[C@@H]2O)[C@@H](O)[C@H]1O`, the inhibition in data set [1] was more than 50%.

In the case of `NNC(=O)c1nn(-c2ccccc2)c(=O)cc1O`, in data set [2], the inhibition is more than 80%.

Turning to `CN[C@@H]1C[C@H]2O[C@@](C)([C@@H]1OC)n1c3ccccc3c3c4c(c5c6ccccc6n2c5c31)C(=O)NC4`, the result in the data set with HCC827-Luc [3] was inactive.

On to `Cc1c(OCC#N)ccc2c3c(c(=O)oc12)CCCC3`, for which the result in the data set with HCC827-Luc [4] and in the data set on NCI-H460-Luc [5] was inactive.

With `COCC(=O)N1CC[C@@H]2[C@H]1C(=O)NC[C@H](CCC(=O)OC)N2C`, the inhibition in data set [2] is more than 80%.

As to `O=C(O)c1ccc2[nH]c(-c3ccnc(-c4cccnc4)c3)nc2c1`, the inhibition in data set [2] was more than 80%; in data set [6], 95%.

`CCOC(=O)c1c(C)sc(N)c1C(=O)OCC`: in [2], the inhibition is more than 80%.

Consider `CN1C(=O)N/C(=C/c2cccn2-c2ccc(C(=O)O)cc2)C1=O`, for which the inhibition in data set [2] is more than 80%; in data set [6] it was 51%.

Consider `Cc1c(OCC(=O)O)ccc2c3c(c(=O)oc12)CCCC3`, for which the result with HCC827-Luc [4] and in the data set with NCI-H460-Luc [5] was inactive.

On to `Nc1ncnc2c1ncn2[C@@H]1O[C@H](COP(=O)(O)O)[C@@H](O)[C@H]1O`, for which the inhibition in data set [1] was more than 50%.

`Cc1c(OCc2nn[nH]n2)ccc2c3c(c(=O)oc12)CCCC3`: the outcome in the data set on HCC827-Luc [4] and in the data set with NCI-H460-Luc [5] was inactive.

In the case of `Cc1c(OCC(=O)NO)ccc2c3c(c(=O)oc12)CCCC3`, the outcome in the data set on HCC827-Luc [7], in the data set on HCC827-Luc [4], in the data set on NCI-H460-Luc [5] and in the data set on HCC827-Luc [11] was Active. The inhibition entry in data set [8] was “Active”. The outcome with HCC827-Luc [9] and in the data set on NCI-H460-Luc [10] was inactive.

As to `Nc1ncnc2c1ncn2[C@@H]1O[C@H](COP(=O)(O)OP(=O)(O)OP(=O)(O)OC[C@H]2O[C@@H](n3cnc4c(N)ncnc43)[C@H](O)[C@@H]2O)[C@@H](O)[C@H]1O`, the inhibition in data set [1] was more than 50%.

On to “Bis(5'-adenosyl)-triphosphatase (Homo sapiens), P49789”, for which the Km in [12] turned out to be 37 µM. The kcat in [13] stood at 0.35 s⁻¹. Also, the kcat/Km was determined as 6330 M⁻¹ s⁻¹ in data set [14], 967 M⁻¹ s⁻¹ in data set [15], 9330 M⁻¹ s⁻¹ in [16] and 1830 M⁻¹ s⁻¹ in data set [17].

On to `O=C(Cn1cc([N+](=O)[O-])ccc1=O)NC(=O)NCc1ccco1`, for which the inhibition in data set [2] is more than 80%; in [6] it was 59%.

As for `O=C(O)c1ccc(/C=N/NC(=O)c2nc(-c3ccccc3)n(-c3ccccc3)n2)cc1`, in [2], the inhibition is more than 80%.

Turning to `Cc1c(OCc2nn[nH]n2)ccc2c3c(c(=O)oc12)CCC(C)C3` (stereo not given), the figures for the inhibition in data set [2] and in data set [6] were more than 80% and 76%, respectively.
